Measured values taken from patent US12590130B2, “Bipartite molecules and uses thereof in treating diseases associated with abnormal protein aggregates” (ACADEMIA SINICA, priority 2014, dated 2026).

What was measured:
[1] = test system: 109QmHtt aggregates; experiment: TIRF microscopy of mHtt aggregates in Neuro2a cells; type: cell-based; conditions: Neuro2a cells expressing 109QmHtt
Protocol: FIG. 3. Diagrams showing the co-localization of tested bipartite peptides with the 109QmHtt aggregates. Panel A: Structure of TAMRA-labeled 8R10Q used in this study. Panel B: Epifluorescence micrographs of Neuro2a cells expressing 109QmHtt treated with TAMRA-8R10Q (8R10Q) at various time points. Note the co-localization of 8R10Q and 109QmHttGFP aggregates (GFP) from 8-24 hours (arrows). Scale bar: 10 μm. Panel C: TIRF micrographs of the Neuro2a expressing 109QmHtt treated with water or peptides as indicated at various time points. Note the decrease in aggregate size in 8R10Q and 8R15Q-treated cells. Panel D: Quantitation of the size of individual aggregates in Neuro2a at 8 hours (left) and 24 hours (right) after peptide treatment. […] Panel E: Quantitation of the number of aggregates in 20 Neuro2a cells at 12 hours (left) and 24 hours (right) after peptide treatment. Both the 8R10Q and 8R15Q increased the number of aggregates. Statistics performed with one way ANOVA. **p<0.01; ***p<0.001.
To probe into the details of the effect of peptide on the mHtt aggregates, the parameters of the mHtt aggregates were visualized and measured using the Total Internal Reflection Fluorescence (TIRF) microscopy. […] The number of aggregates in 20 cells was also calculated. 8R10Q and 8R15Q increased the number of the aggregates by 4-5 fold (FIG. 3, panel E).

[2] = test system: 109QmHtt; experiment: Western blot of RIPA-soluble and -insoluble fractions of Neuro2a lysates; type: cell-based; conditions: peptide-treated samples
Protocol: FIG. 4. Testing the ability of therapeutic peptides to decrease mHtt aggregation in Neuro2a cells overexpressing mHtt. Panel A: Filter trap assays and corresponding quantitation of cells (panel B) treated as indicated at 8 hours (T1), 24 hours (T2), or both (T1+2) after transfection with the 109QmHtt construct. […] Panel C: Western blots and quantitation (panel D) of RIPA-soluble (sol) and -insoluble (ins) fractions of Neuro2a cells overexpressing 25QHtt or 109QmHtt and treated as indicated. […] Panel E: Western blot of the 109QmHtt in cells treated as indicated. Note that MG132 blocked the effect of 8R10Q peptide with respect to decreasing insoluble 109QmHtt. Panel F: Quantitation of ratio of 109QmHtt in cells treated MG132 (+) over DMSO (−) in relationship to peptides. Statistical analysis conducted with one way ANOVA, *<0.05, **<0.01, ***<0.001, ns: not significant.
For further characterization, Neuro2a lysates were separated into the RIPA-soluble (sol) and insoluble (ins) fractions ([…]). 8R10Q peptide decreased the level of mHtt in both the soluble and insoluble fractions as compared with water, 8R, or the scrambled (s8R10Q) control (FIG. 4, panel D). […]

[3] = test system: R6/2 transgenic mice; experiment: Neuropathology of R6/2 transgenic mice; type: in vivo, mouse
Source text: FIG. 7. Amelioration of neuronal damage of 13 week-old R6/2 mice by 8R10Q peptide. Panel A: Micrographs of the Nissl stain sections of cortex (CTX) of WT and R6/2 mice. The cortex and its thickness are highlighted by the dashed lines and red solid lines, respectively. Panel B: Quantitation of the cortical thickness. Note the decrease in cortical thickness in R6/2 mice which was reversed by the 8R10Q. […]: Micrographs (panel D) and (panel F) show the corresponding quantitation of the Nissl stained sections of the cortex and striatum, respectively. Note the decrease in the number of neurons, which was reversed by 8R10Q. N=3/group, each bar represents the average of 5 sections. Statistical analysis performed with one way ANOVA, *p<0.05; ***p<0.001, ns: not significant.
FIG. 8. Decrease in mHtt aggregates and glial pathology in 13-week-old R6/2 mice by 8R10Q peptide treatment. Panel A: Micrographs and corresponding quantitation (panel B) of the immunostained sections of cortex (CTX) and striatum with EM48 antibody. The brown dots show the mHtt aggregates. The left subpanels of panel B show the quantitative data with respect to the total area occupied by the aggregates, and the right, the intensity of individual aggregates. Panel C: Photographs of the immunofluorescent-stained sections of the cortex of R6/2 mice with anti-GFAP antibody. […] Panel E: Micrographs of the immunostained sections of the cortex (CTX) and striatum of WT and R6/2 mice with anti-Iba1 antibody. […] N=3/group. Each bar represented an average of 15 sections/mouse group. Statistics were performed with Student's t test for panels B and D, but with one way ANOVA, *p<0.05; **p<0.01; ***p<0.001, ns: not significant.
To correlate the beneficial effect with the aggregates of mHtt, immunohistochemistry was performed to calculate the areas occupied by the aggregates per unit area (150 μm^2). The method was selected because the frequent clustering of the aggregates into conglomerates rendered an accurate count of the aggregate number very difficult.

## H-RRRRRRRRWDQQQQQQQQQQ-NH2 [Peptide 8R10Q, NH2-(R)8-W-D-(Q)10-CONH2]
[1]
  average size of the aggregates: 0.3 μm^2
[2]
  ratio of the MG132:DMSO 109QmHtt: much higher
[3]; 13 week-old R6/2 mice
  cortical thickness: prevented cortical thinning
[3]; R6/2 mice, intranasal
  loss of neurons in cortex and striatum: significantly prevented
[3]; cortex and striatum
  intensity of mHtt aggregates: significantly decreased
[3]; cortex and striatum of R6/2 mice
  tau signals: significantly enhanced
[3]; cortex and striatum, vs PBS, EM48 immunohistochemistry
  decrease in areas of mHtt aggregates: ~60%
[3]; cortex of R6/2 mice
  numbers of GFAP-positive astrocytes: significant decrease
  numbers of Iba-1-positive microglia: significant decrease
